Structures can show the parent of a compound that is named as a salt. Where two headings read alike, the source gives them in different places. Values belong to the compound of their own block, whether it stands above or below them.
Tests used:
[1] = tested on: Nrf2; settings: SFN 10 μM for 6 hr
Method: (§1) Cells were maintained in DMEM or RPMI supplemented with 10% Fetal Bovine Serum and gentamicin. Cell lines expressing rtTA were kept under Neomycin selection (400 ug/mL). Cell lines expressing dox inducible Nrf2 constructs remained under Hygromycin selection (600 ug/mL). […] Viability in the presence of all compounds was assessed by cell titer glo (Promega #G7570) and trypan blue exclusion on a Countess II automated cell counter (Life Technologies). For clonogenic and low-density assays, cells were stained with Crystal Violet solution (25% Methanol 75% H20). For cell counts after DMF treatment cells were fixed with 4% paraformaldehyde for 15 minutes at 4 C. Cells were then washed in ice cold PBS and then stained with Hoechst DNA stain. Plates were quantified using a Tecan infinite M200 Pro plate reader or a SpectraMax M5 Miroplate reader (Molecular Devices).
Cells were lysed in 250 μL ice-cold RIPA buffer (Pierce, #89900) supplemented with 1 × Complete Mini inhibitor mixture (Roche, #11 836 153 001) and mixed on a rotator at 4° C. for 30 minutes. The protein concentration of the cell lysates was quantified using the Bio-Rad DC Protein Assay (Catalog #500-0114). 50-80 μg of total protein was separated on 4-12% Bis-Tris gradient gels (Bio-Rad) by SDS-PAGE and then transferred to nitrocellulose membranes. […]
RNA was collected from cells as before (Papagiannakopoulos et al. (2016, Cell Metab 24, 324-331, doi:10.1016/j.cmet.2016.07.001) with RNeasy plus mini kit (Qiagen), sequenced with X analyzed with YZ. For Real Time qPCR analysis, complementary DNA (cDNA) was synthesized from RNA with the High Capacity cDNA Reverse Transcription Kit (Applied Biosystems #4368814). Genes Slc7a11, Gclc, Hmox1, and Nqo1 were analyzed by quantitative reverse transcription polymerase chain reaction on LightCycler 480 II (Roche). RT qPCR primers (Supplementary Sequences).

[2] = tested on: KPK cell lines; assay: Viability/growth of KPK (Keap1 loss) cell lines compared to KP (cell titer glo, trypan blue, crystal violet); type: cell-based, mouse
Method: as §1

[3] = tested on: KPN cells; assay: Viability of KPN (Nrf2 loss) cells under oxidative stress agents; type: cell-based, mouse; settings: KPN cells treated with oxidative stress agents (BSO, AUR, ERA)
Method: as §1

[4] = tested on: glutathione (GSH); assay: Glutathione measurement (GSH/GSSG-Glo) after BSO; type: cell-based, mouse
Method: ROS in cultured cells were measured by incubating […] with 5 μM CM-H2DCFDA (C6827, Life Technologies) for 30 min at 37° C. DCF fluorescence was acquired on the Attune NxT (ThermoFisher) flow cytometer and analyzed using FlowJo software (Tree Star). Reduced (GSH) and oxidized glutathione (GSSG) was measured with a GSH/GSSG-Glo Assay kit (V6611, Promega) for the indicated amount of time.

[5] = tested on: KPN-ix cell lines; assay: BSO dose response in KPN-ix cells with doxycycline inducible GOF-Nrf2; type: cell-based, mouse
Method: as §1

[6] = tested on: KP, KPN and KPK cell lines; assay: Viability of isogenic cell line panel treated with oxidative stress inducers (cell-titer glo); type: cell-based, mouse; settings: 72 hours of drug treatment
Method: as §1

[7] = tested on: KP-ix cells; assay: Viability counts of KP-ix cells (doxycycline inducible GOF-Nrf2) with CB-839; type: cell-based, mouse; settings: CB-839 250 nM, 72 hours
Method: as §1

[8] = tested on: KPK-derived subcutaneous and orthotopic tumors; assay: CB-839 treatment of KPK-derived subcutaneous and orthotopic tumors in immunodeficient animals; type: in vivo, mouse
Method: (§2) Animals were treated as before (Davidson et al. 2016, Cell Metab 23:517-528, doi: 10.1016/j.cmet.2016.01.007) with 200 mg/kg CB-839 or vehicle twice a day after tumor establishment phase. The vehicle contained 25% (w/v) hydroxypropyl-β-cyclodextrin in 10 mmol/L citrate (pH 2.0), and CB-839 was formulated at 20 mg/mL for a final dosing volume of 10 mL/kg.
(§3) It was next asked if increased glutamine utilization in KPK cell lines could be a druggable metabolic liability. […] Consistently, a panel of human lung cancer cells containing KEAP1 mutations or GOF mutations in NRF2 were sensitive to glutaminase inhibition while KEAP1 WT cells were largely resistant (FIG. 9C and FIG. 10B). […] To investigate the therapeutic potential of targeting glutaminase in Keap mutant tumors in vivo, KP and KPK cells were transplanted subcutaneously and orthotopically (lung) in immunodeficient animals. Once tumors had established, treatment was initiated with either vehicle or CB-839, an orally bioavailable glutaminase inhibitor in phase I clinical trials for KRAS mutant NSCLC (FIG. 9E).

[9] = tested on: T cell; assay: Impact of CB839 on T cell function (data not shown); type: cell-based
[10] = tested on: KP-derived tumors; assay: CB-839 treatment of KP-derived subcutaneous and orthotopic tumors in immunodeficient animals; type: in vivo, mouse; settings: subcutaneous and orthotopic transplants; 200 mg/kg CB-839 twice a day
Method: as §2, §3

[11] = intraperitoneal, 50 mg/kg daily over 30 days; cited from earlier work
[12] = tested on: GPD2; settings: in vivo; cited from earlier work
[13] = tested on: Nrf2; assay: Western blot for Nrf2 after oxidative stress inducer DMF in isogenic KP/KPK cells; type: cell-based, mouse; settings: control (KP) cells; 6 hour DMF treatment
Description: To perform in vitro functional characterization of and Keap1, isogenic cell lines were generated from a Kras^LSL-G12D/+; p53^−/− C57B6 GEMM-derived cell line using the CRISPR/Cas9 and sgRNAs against Keap1. LOF of the gene was validated by western blot analysis in basal conditions and in the presence of an oxidative stress inducer, dimethyl fumarate (DMF), which is known to deplete the cellular glutathione pool and induce Nrf2 activation (Sullivan et al., “The Proto-oncometabolite Fumarate Binds Glutathione to Amplify ROS-Dependent Signaling,” Molecular Cell 51:236-248 (2013), which is hereby incorporated by reference in its entirety). It was observed that Nrf2 is induced in control cells in response to 6 hour DMF treatment. Keap1 LOF leads to a robust increase of Nrf2 even in the absence of DMF (FIG. 13).

SMILES: C[S+]([O-])CCCCN=C=S (racemic) [Sulforaphane, D,L-Sulforaphane]
Nrf2 protein levels and expression of target genes ([1]; KP cells): stabilized Nrf2 protein levels and expression of target genes
Nrf2 protein levels and expression of target genes ([1]; KP cells, listed as SFN): accumulation of Nrf2 occurs only in the KP samples
Nrf2 protein levels and expression of target genes ([1]; KPK or KPN cells, listed as SFN): not further stabilized

SMILES: O=CC[C@@H](O)[C@H](O)[C@H](O)CO [2-deoxy-D-glucose]
sensitivity to glycolytic inhibitor ([2]; KPK compared to KP cells, 5 mM 2DG for 72 h): increased sensitivity

SMILES: CC(=O)N[C@@H](CS)C(=O)O [N-acetyl cysteine, N-acetyl-L-cysteine]
rescue of loss of viability by antioxidants [3]: rescued

IC50 of BSO ([5]; KPN-ix +dox versus -dox, 72 hours): increase
SMILES: CCCCS(=N)(=O)CCC(N)C(=O)O [BSO, L-Buthionine-sulfoximine]
levels of GSH and viability ([4]; KPK compared to KP clones, 100 μM BSO): maintain measurable levels of GSH and viability
GSH pools ([4]; KPN clones, after 12 hours of BSO treatment (100 μM)): rapid exhaustion of GSH pools
reduced glutathione (GSH): oxidized glutathione (GSSG) ratio ([4]; panel of isogenic cell lines (KP, KPN, KPK)): stark contrast
BSO-mediated loss of viability upon induction of GOF-Nrf2 ([5]; 72 hours of dox induction): rescued
genotype-specific sensitivity (cell viability) [6]: distinct genotype-specific sensitivities

SMILES: O=C(Cc1cccc(OC(F)(F)F)c1)Nc1ccc(CCCCc2nnc(NC(=O)Cc3ccccn3)s2)nn1 [CB-839]
sensitivity to CB-839 upon induction of GOF-Nrf2 [7]: robust sensitivity
final tumor weights ([8]; 200 mg/kg CB-839 twice a day versus vehicle): smaller final tumor weights
tumor growth over the course of the experiment ([8]; subcutaneous and orthotopic transplants, 200 mg/kg CB-839 twice a day): dramatic stunted growth
impact on T cell function [9]: does not negatively impact T cell function
tumor response to treatment [10]: no response
sensitivity to glutaminase inhibitors ([2]; KPK compared to KP cell lines, 72 hours): far more sensitive

SMILES: CN(C)C(=N)N=C(N)N [metformin]
toxicity [11]: no toxicity
GPD2 enzymatic activity [12]: inhibits

SMILES: Cc1c(C)c2c(c(C)c1O)CCC(C)(C(=O)O)O2 (stereo not shown) [Trolox]
rescue of loss of viability by antioxidants [3]: rescued

SMILES: COC(=O)/C=C/C(=O)OC [DMF, Dimethyl fumarate]
Nrf2 induction (western blot) [13]: induced

SMILES: CC(=O)OC[C@H]1O[C@@H]([S-])[C@H](OC(C)=O)[C@@H](OC(C)=O)[C@@H]1OC(C)=O.CCP(CC)CC.[Au+] [auranofin, Auranofin]
genotype-specific sensitivity (cell viability) [6]: distinct genotype-specific sensitivities

Source: patent US20240261245A1, “METHODS OF TREATING CANCERS HAVING A DEREGULATED NRF2/KEAP1 PATHWAY” (New York University, priority 2017, published 2024)
